Patent US20080280810A1, “PEPTIDES HAVING AFFINITY FOR BODY SURFACES” (priority 2006, published 2008)

Tests used:
[1] = Color retention after shampoo treatment, peptide as sealant with Basic Violet 2 dye; design: species or system human; details: for Delta E: 0.50 wt % Basic Violet 2, peptide 0.25 wt %, 30 min contact, after 10 shampoo treatments, dye alone 37.34; for hair color retention compared to the dye alone (in words): Basic Violet 2, by Delta E values, vs Comparative Example 13
Experimental: (§1) The peptides used in this Example were prepared as described in Examples 1 and 2. The color retention was quantified using a spectrophotometric measurement technique. A peptide given as SEQ ID NO:41 or SEQ ID NO:42 (38 mg), produced via fermentation as described in Examples 1 and 2, was added to 15 g of an aqueous 0.50 wt % solution of Basic Violet 2 (Abbey Color, Philadelphia, Pa.) and the solution was allowed to stir for 1 h. A natural white hair tress (1 cm wide, potted, International Hair Importers & Products Inc., Bellerose, N.Y.) was inserted into a 15 mm×125 mm test tube and 13 mL of the peptide/dye mixture was injected into the test tube. The hair tress was immersed in contact with the colorant solution for 30 min and the colorant solution was agitated using a magnetic stirrer. The tress was removed, allowed to drip dry, and then air dried for 30 min. The hair tress was then subjected to a water rinse using copious amounts of deionized water, followed by a shampoo treatment with embrocation for 30 seconds. The shampoo treatment involved the application of Pantene Pro-V Sheer Volume shampoo (Proctor & Gamble, Cincinnati, Ohio) to the hair as follows. A quarter-sized drop of the shampoo was distributed evenly over the hair tress and then was massaged aggressively into the hair for 30 sec, after which the hair tress was rinsed with water to remove the shampoo. The hair tress was then dried at room temperature. The shampooing step was repeated 9 more times to give a total of 10 shampoo treatments. The entire procedure described above was repeated without the addition of the hair-binding peptide to serve as a control. The color intensity after the shampoo was measured as described in Examples 4-7.

[2] = Color retention after shampoo treatment, peptide as sealant with Basic Red 2 dye; design: species or system human; details: 0.25 wt % Basic Red 2, peptide 0.25 wt %, 60 min contact, after 10 shampoo treatments; dye alone 29.70
Experimental: as §1, with “an aqueous 0.25 wt %” for “an aqueous 0.50 wt %”, “of Basic Red 2 (Abbey” for “of Basic Violet 2 (Abbey”, “solution for 60 min and” for “solution for 30 min and”, “as follows. […] The color” for “as follows. A quarter-sized drop of the shampoo was distributed evenly over the hair tress and then was massaged aggressively into the hair for 30 sec, after which the hair tress was rinsed with water to remove the shampoo. The hair tress was then dried at room temperature. The shampooing step was repeated 9 more times to give a total of 10 shampoo treatments. The entire procedure described above was repeated without the addition of the hair-binding peptide to serve as a control. The color”

[3] = Co-application of multi-block peptide with semi-permanent dye (Arianor Ebony), color retention; design: species or system human; key: ΔE of peptide sample minus peptide-free control; larger = better retention; details: difference in Delta E between peptide sample and peptide free control after 3 embrocation cycles (about 12 manual shampoos); pH 8.5-9.0; >2 benefit, >4 substantial benefit
Experimental: A 0.5% aqueous solution of Arianor Ebony (Sensient Technologies Corp, Milwaukee, Wis.) containing 3% benzyl alcohol and 0.05% diazolidinyl urea (biocide) was prepared. Dye insolubles were removed by filtration and the pH of the dye solution was adjusted to 8.50-9.0, using ethanolamine.
Approximately 1 mL of the dye solution was added to selected wells of a 24-well plate (Thomson Instrument Co., Oceanside, Calif.; part # 931565). A multi-block peptide (see Table 12) was dissolved in a solution consisting of 3 wt % benzyl alcohol and 95 wt % water to yield a peptide concentration of 2 wt % or approximately 20 mg/mL. The pH was adjusted to 8.5-9.0 using ethanolamine. The peptide solution was then pipetted into test wells containing dye solution in the amount of 1 mL or 0.2 mL respectively. The total volume in each test well was then adjusted to 2 mL where necessary using 3% aqueous benzyl alcohol (pH adjusted to 8.5-9.0 with ethanolamine). Peptide free controls consisted of 1 mL of dye solution diluted to 2 mL with the pH adjusted aqueous benzyl alcohol solution.
Baseline […] readings were made on one inch long tresses (see below) using an X-RITE® SP78™ Sphere Spectrophotometer (X-Rite, Inc., Grandville, Mich.), by placing the hair tress into the photosensor and calculating L*, a* and b* parameters representing the photometer response. All measurements were the average of three individual determinations.
The tresses (potted on one end with resin) of natural white, 85% gray or regular bleached hair (International Hair Importers and Products, Bellerose, N.Y.) were immersed in the peptide/dye solution and the entire well plate was agitated on a VORTEX-GENIE® 2 Mixer (Scientific Industries, Bohemia, N.Y.) at a speed setting of 1 for 30 minutes. The tresses were removed from the wells, rinsed for 30 seconds under flowing deionized water and then air dried.
The following complement of beads was then added to each well containing a hair tress: (8 beads in all; 4 Novagen Coli Rollers Plating Beads—sterilized (EMD Biosciences, San Diego, Calif.; Catalog No. 71013), 2 BioSpec 6.35 mm glass beads (BioSpec Products, Bartlesville, Okla.; Catalog No. 11079635), and 2 BioSpec 3.2 mm Stainless Steel Bead (Catalog No. 11079132ss).
Then 2.5 mL of aqueous 50% Pantene Pro V® shampoo (Proctor & Gamble Co., Cincinnati, Ohio) was pipetted into each well. The plate was placed on a VWR® VX-2500 Multi-tube Vortexer (VWR, West Chester, Pa.) for 5 minutes to simulate shampooing with embrocation. The hair tresses were then rinsed under flowing deionized water and air dried. This cycle was repeated two more times except that the length of time was 10 minutes for both subsequent embrocation cycles. (This treatment was previously determined to simulate approximately 12 manual shampoo cycles.) At the conclusion of the third embrocation cycle L*, a* and b* values were measured and Delta E values (ΔE) were calculated using equation 1 below:
where L*=the lightness variable and a* and b* are the chromaticity coordinates of CIELAB colorspace as defined by the International Commission of Illumination (CIE) (Minolta, Precise Color Communication—Color Control From Feeling to Instrumentation, Minolta Camera Co., 1996).
The Delta E value (ΔE) indicates color retention relative to the non-dyed hair and larger Delta E values indicate better performance. Values listed in the table represent the difference in Delta E values between the peptide-containing sample and the peptide free control. This difference is indicative of color retention after shampoo or water rinse treatments and positive values indicate better performance relative to the peptide free controls (Table 12).

Row | Substance | Delta E [1] | hair color retention compared to the dye alone (in words) [1] | Delta E [2] | ΔE Retention Ebony Dye Regular Bleached Hair [3] | ΔE Retention Ebony dye with Natural White Hair [3]
1 | P-EQISGSLVAAPW-KRKRK-D (PEQISGSLVAAPWKRKRKD; Peptide having affinity for hair) [HC 74] | 38.91 | a small improvement in hair color retention | 33.64 | 0.1 | 8.5
2 | P-TPPELLHGAPRS-KRKRK-D (PTPPELLHGAPRSKRKRKD; Peptide having affinity for hair) [HC 71] | 37.02 | no improvement in hair color retention | 32.36 | 1.9 | 5.2
